The record followed here is article PMC5218480 (PLoS ONE, 2017).

Structures are written as SMILES.

In the test the test system is MV-4-11 cells. The experiment in a line: Gene expression microarray analysis (Affymetrix PrimeView) and GSEA. The class given is cell-based, human. Conditions: ProbeSet 11731461_x_at; LIST D. On the set-up: RFU PODN (11730768_x_at) / Fold change /veh PODN (11730768_x_at) / RFU LINC00158 (11744669_a_at) / Fold change /veh LINC00158 (11744669_a_at) / RFU DUSP10 (11751237_a_at) / Fold change /veh DUSP10 (11751237_a_at) / RFU ID3 (11757404_x_at) / Fold change /veh ID3 (11757404_x_at) / RFU PLEKHG5 (11737974_s_at) / Fold change /veh PLEKHG5 (11737974_s_at) / RFU LRRC4B (11730491_at) / Fold change /veh LRRC4B (11730491_at) / RFU GIMAP4 (11747438_a_at) / Fold change /veh GIMAP4 (11747438_a_at) / RFU KRT8 (11758183_x_at) / Fold change /veh KRT8 (11758183_x_at) / RFU CNN1 (11734310_a_at) / Fold change /veh CNN1 (11734310_a_at) / RFU VPS37D (11726825_at) / Fold change /veh VPS37D (11726825_at) / RFU C10orf10 (11716522_x_at) / Fold change /veh C10orf10 (11716522_x_at) / RFU KIR2DL2 /// KIR2DL4 /// KIR2DL5A /// KIR2DL5B /// KIR2DS1 /// KIR2DS2 /// KIR2DS3 /// KIR2DS4 /// KIR3DL3 /// KIR3DL3 /// KIR3DS1 (11738374_at) / Fold change /veh KIR2DL2 /// KIR2DL4 /// KIR2DL5A /// KIR2DL5B /// KIR2DS1 /// KIR2DS2 /// KIR2DS3 /// KIR2DS4 /// KIR3DL3 /// KIR3DL3 /// KIR3DS1 (11738374_at) / RFU C1QL1 (11718748_at) / Fold change /veh C1QL1 (11718748_at) / RFU TMPRSS4 (11747572_a_at) / Fold change /veh TMPRSS4 (11747572_a_at) / RFU HAMP (11756126_x_at) / Fold change /veh HAMP (11756126_x_at) / RFU RNFT2 (11725882_a_at) / Fold change /veh RNFT2 (11725882_a_at) / RFU NR4A2 (11747474_a_at) / Fold change /veh NR4A2 (11747474_a_at) / RFU ABCC12 (11746883_a_at) / Fold change /veh ABCC12 (11746883_a_at) / RFU TMEM136 (11760407_x_at) / Fold change /veh TMEM136 (11760407_x_at) / RFU CLDN22 /// WWC2 (11732394_at) / Fold change /veh CLDN22 /// WWC2 (11732394_at) / RFU HLA-DPB1 (11760878_x_at) / Fold change /veh HLA-DPB1 (11760878_x_at) / RFU SPINT1 (11716480_a_at) / Fold change /veh SPINT1 (11716480_a_at) / RFU GAP43 (11754022_s_at) / Fold change /veh GAP43 (11754022_s_at) / RFU A4GNT (11735810_at) / Fold change /veh A4GNT (11735810_at) / RFU PRB3 (11715151_x_at) / Fold change /veh PRB3 (11715151_x_at) / RFU TUBB4B (11761932_at) / Fold change /veh TUBB4B (11761932_at) / RFU CAPN14 (11732068_a_at) / Fold change /veh CAPN14 (11732068_a_at) / RFU TMCC2 (11721928_a_at) / Fold change /veh TMCC2 (11721928_a_at) / RFU IRGQ (11745062_a_at) / Fold change /veh IRGQ (11745062_a_at) / RFU FAM174B (11720279_a_at) / Fold change /veh FAM174B (11720279_a_at) / RFU TMPRSS4 (11748680_a_at) / Fold change /veh TMPRSS4 (11748680_a_at) / RFU FAM212B (11763350_a_at) / Fold change /veh FAM212B (11763350_a_at) / RFU PLEKHG5 (11743358_a_at) / Fold change /veh PLEKHG5 (11743358_a_at) / RFU ZSCAN30 (11745921_a_at) / Fold change /veh ZSCAN30 (11745921_a_at) / RFU CMKLR1 (11741424_a_at) / Fold change /veh CMKLR1 (11741424_a_at) / RFU LOC101060620 /// MAPK8IP1 (11723275_at) / Fold change /veh LOC101060620 /// MAPK8IP1 (11723275_at) / RFU SPTSSB (11747773_x_at) / Fold change /veh SPTSSB (11747773_x_at) / RFU PRSS12 (11739890_at) / Fold change /veh PRSS12 (11739890_at) / RFU BIN1 (11741810_x_at) / Fold change /veh BIN1 (11741810_x_at) / RFU WNT11 (11732464_a_at) / Fold change /veh WNT11 (11732464_a_at) / RFU C10orf10 (11716521_a_at) / Fold change /veh C10orf10 (11716521_a_at) / RFU C5orf56 (11738089_at) / Fold change /veh C5orf56 (11738089_at) / RFU CYB561 (11721691_x_at) / Fold change /veh CYB561 (11721691_x_at) / RFU ANKRD19P (11752326_a_at) / Fold change /veh ANKRD19P (11752326_a_at) / RFU OR2T12 /// OR2T33 /// OR2T8 (11738714_s_at) / Fold change /veh OR2T12 /// OR2T33 /// OR2T8 (11738714_s_at) / RFU VCAN (11748164_a_at) / Fold change /veh VCAN (11748164_a_at) / RFU JSRP1 (11732532_at) / Fold change /veh JSRP1 (11732532_at) / RFU KRTAP10-11 (11738290_x_at) / Fold change /veh KRTAP10-11 (11738290_x_at) / RFU MYO3A (11730013_a_at) / Fold change /veh MYO3A (11730013_a_at) / RFU EBF3 (11725865_a_at) / Fold change /veh EBF3 (11725865_a_at) / RFU CAMK2N1 (11719241_x_at) / Fold change /veh CAMK2N1 (11719241_x_at) / RFU C5orf56 (11738088_a_at) / Fold change /veh C5orf56 (11738088_a_at) / RFU OLFML3 (11715873_a_at) / Fold change /veh OLFML3 (11715873_a_at) / RFU LOC100653217 /// NTM (11731650_a_at) / Fold change /veh LOC100653217 /// NTM (11731650_a_at) / RFU MAPK11 (11762145_a_at) / Fold change /veh MAPK11 (11762145_a_at) / RFU FIZ1 (11724087_x_at) / Fold change /veh FIZ1 (11724087_x_at) / RFU OASL (11726364_x_at) / Fold change /veh OASL (11726364_x_at) / RFU SOX15 (11748057_x_at) / Fold change /veh SOX15 (11748057_x_at) / RFU CD79A (11719716_a_at) / Fold change /veh CD79A (11719716_a_at) / RFU HIST1H1D (11736915_at) / Fold change /veh HIST1H1D (11736915_at) / RFU CASKIN2 (11723855_a_at) / Fold change /veh CASKIN2 (11723855_a_at) / RFU LOC730098 (11760151_x_at) / Fold change /veh LOC730098 (11760151_x_at) / RFU OR4N2 (11742367_at) / Fold change /veh OR4N2 (11742367_at) / RFU PRRT2 (11749266_a_at) / Fold change /veh PRRT2 (11749266_a_at) / RFU SNX32 (11753110_a_at) / Fold change /veh SNX32 (11753110_a_at) / RFU CDHR5 (11726645_a_at) / Fold change /veh CDHR5 (11726645_a_at) / RFU RCAN1 (11760418_a_at) / Fold change /veh RCAN1 (11760418_a_at) / RFU FAM167A (11723789_a_at) / Fold change /veh FAM167A (11723789_a_at) / RFU FAM26E (11764081_at) / Fold change /veh FAM26E (11764081_at) / RFU ISYNA1 (11749810_s_at) / Fold change /veh ISYNA1 (11749810_s_at) / RFU ACY1 (11761880_at) / Fold change /veh ACY1 (11761880_at) / RFU 11764098_at / Fold change /veh 11764098_at / RFU SAMD14 (11745864_x_at) / Fold change /veh SAMD14 (11745864_x_at) / RFU NPB (11741838_a_at) / Fold change /veh NPB (11741838_a_at) / RFU TMPRSS6 (11731388_a_at) / Fold change /veh TMPRSS6 (11731388_a_at) / RFU KRTAP10-2 (11738614_at) / Fold change /veh KRTAP10-2 (11738614_at) / RFU ARHGAP8 /// PRR5-ARHGAP8 (11727945_x_at) / Fold change /veh ARHGAP8 /// PRR5-ARHGAP8 (11727945_x_at) / RFU KRTAP5-7 /// NADSYN1 (11734609_at) / Fold change /veh KRTAP5-7 /// NADSYN1 (11734609_at) / RFU RASL12 (11751679_a_at) / Fold change /veh RASL12 (11751679_a_at) / RFU CDKN2B (11736163_a_at) / Fold change /veh CDKN2B (11736163_a_at) / RFU PRF1 (11729649_at) / Fold change /veh PRF1 (11729649_at) / RFU, ZNF638 /// ZNF638-IT1 / Fold change vs veh, ZNF638 /// ZNF638-IT1 / RFU, PANK3 / Fold change vs veh, PANK3 / RFU, SH3YL1 / Fold change vs veh, SH3YL1 / RFU, ZEB2 / Fold change vs veh, ZEB2 / RFU, NRIP1 / Fold change vs veh, NRIP1 / RFU, PTTG1IP / Fold change vs veh, PTTG1IP / RFU, CAPN2 / Fold change vs veh, CAPN2 / RFU, MED14 / Fold change vs veh, MED14 / RFU, SNORA58 / Fold change vs veh, SNORA58 / RFU, C1orf63 / Fold change vs veh, C1orf63 / RFU, LRRFIP1 / Fold change vs veh, LRRFIP1 / RFU, NDUFAF7 / Fold change vs veh, NDUFAF7 / RFU, SLC12A2 / Fold change vs veh, SLC12A2 / RFU, IBTK / Fold change vs veh, IBTK / RFU, ESF1 / Fold change vs veh, ESF1 / Fold change vs veh, TMEM50B / RFU, TAOK1 / Fold change vs veh, TAOK1 / RFU, ACBD3 / Fold change vs veh, ACBD3 / RFU, TMA16 / Fold change vs veh, TMA16 / RFU, RWDD3 / Fold change vs veh, RWDD3 / RFU, BCAT1 / Fold change vs veh, BCAT1 / RFU, EDEM3 / Fold change vs veh, EDEM3 / RFU, TMEM33 / Fold change vs veh, TMEM33 / RFU, WDR75 / Fold change vs veh, WDR75 / RFU, AHCTF1 / Fold change vs veh, AHCTF1 / RFU, TFRC / Fold change vs veh, TFRC / RFU, ZDHHC17 / Fold change vs veh, ZDHHC17 / RFU, NOM1 / Fold change vs veh, NOM1 / RFU, ARL8B / Fold change vs veh, ARL8B / RFU, ZBTB11 / Fold change vs veh, ZBTB11 / RFU, TAMM41 / Fold change vs veh, TAMM41 / RFU, KIAA1704 /// LOC100996395 / Fold change vs veh, KIAA1704 /// LOC100996395 / RFU, ING1 / Fold change vs veh, ING1 / RFU, TRMT61B / Fold change vs veh, TRMT61B / RFU, FUBP3 / Fold change vs veh, FUBP3 / RFU, TP53 / Fold change vs veh, TP53 / RFU, TNKS2 / Fold change vs veh, TNKS2 / RFU, ZFP14 / Fold change vs veh, ZFP14 / RFU, ACTR2 / Fold change vs veh, ACTR2 / RFU, PPP3R1 / Fold change vs veh, PPP3R1 / RFU, PIK3R1 / Fold change vs veh, PIK3R1 / RFU, HNRNPA1 / Fold change vs veh, HNRNPA1 / RFU, RNF170 / Fold change vs veh, RNF170 / RFU, ZNF28 / Fold change vs veh, ZNF28 / RFU, RNGTT / Fold change vs veh, RNGTT / RFU, OGT / Fold change vs veh, OGT / RFU, BRD1 / Fold change vs veh, BRD1 / RFU, MARS / Fold change vs veh, MARS / RFU, ZNF655 / Fold change vs veh, ZNF655 / RFU, FAHD1 / Fold change vs veh, FAHD1 / RFU, BDP1 / Fold change vs veh, BDP1 / RFU, LRRCC1 / Fold change vs veh, LRRCC1 / RFU, ARID1A / Fold change vs veh, ARID1A / RFU, ZNF146 / Fold change vs veh, ZNF146 / RFU, ZNF330 / Fold change vs veh, ZNF330 / RFU, GPN3 / Fold change vs veh, GPN3 / RFU, C9orf123 / Fold change vs veh, C9orf123 / RFU, N4BP2L2 / Fold change vs veh, N4BP2L2 / RFU, ARFIP1 / Fold change vs veh, ARFIP1 / RFU, FAM179B / Fold change vs veh, FAM179B / RFU, BCL10 / Fold change vs veh, BCL10 / RFU, UHRF1BP1L / Fold change vs veh, UHRF1BP1L / RFU, BET1 / Fold change vs veh, BET1 / RFU, CNOT2 / Fold change vs veh, CNOT2 / RFU, ZNF268 / Fold change vs veh, ZNF268 / Fold change vs veh, ZNF507 / RFU, DGCR2 / Fold change vs veh, DGCR2 / RFU, WDSUB1 / Fold change vs veh, WDSUB1 / Fold change vs veh, HSP90B1 /// MIR3652 / RFU, ADSS / Fold change vs veh, ADSS / RFU, GK / Fold change vs veh, GK / RFU, ZNF148 / Fold change vs veh, ZNF148 / RFU, TAF9 / Fold change vs veh, TAF9 / RFU, SLC1A5 / Fold change vs veh, SLC1A5 / RFU, SLMO2 / Fold change vs veh, SLMO2 / RFU, ABCC4 / Fold change vs veh, ABCC4 / RFU, LOC101060439 /// RAP1B / Fold change vs veh, LOC101060439 /// RAP1B / RFU, RFX7 / Fold change vs veh, RFX7 / RFU, GTPBP10 / Fold change vs veh, GTPBP10 / RFU, CNEP1R1 / Fold change vs veh, CNEP1R1 / RFU, BIVM-ERCC5 /// ERCC5 / Fold change vs veh, BIVM-ERCC5 /// ERCC5 / RFU, ILF3 / Fold change vs veh, ILF3 / RFU 11762660_at / Fold change /veh 11762660_at / RFU VCAN (11757783_s_at) / Fold change /veh VCAN (11757783_s_at) / RFU DDX43 (11728927_at) / Fold change /veh DDX43 (11728927_at) / RFU KRT8 (11758188_x_at) / Fold change /veh KRT8 (11758188_x_at) / RFU NKD1 (11759106_at) / Fold change /veh NKD1 (11759106_at) / RFU SRD5A1 (11742802_a_at) / Fold change /veh SRD5A1 (11742802_a_at) / RFU TPSAB1 /// TPSB2 (11721975_s_at) / Fold change /veh TPSAB1 /// TPSB2 (11721975_s_at) / RFU GSTM3 (11746129_a_at) / Fold change /veh GSTM3 (11746129_a_at) / RFU IL23R (11737362_x_at) / Fold change /veh IL23R (11737362_x_at) / RFU TMEM51 (11727254_a_at) / Fold change /veh TMEM51 (11727254_a_at) / RFU PIWIL2 (11732686_x_at) / Fold change /veh PIWIL2 (11732686_x_at) / RFU ORM1 (11744905_x_at) / Fold change /veh ORM1 (11744905_x_at) / RFU CCDC152 (11743942_at) / Fold change /veh CCDC152 (11743942_at) / RFU ECM1 (11717891_a_at) / Fold change /veh ECM1 (11717891_a_at) / RFU IL23R (11748794_a_at) / Fold change /veh IL23R (11748794_a_at) / RFU TNFAIP8L3 (11732012_x_at) / Fold change /veh TNFAIP8L3 (11732012_x_at) / RFU MBOAT4 (11741988_at) / Fold change /veh MBOAT4 (11741988_at) / RFU 11764193_at / Fold change /veh 11764193_at / RFU TMEM53 (11763286_at) / Fold change /veh TMEM53 (11763286_at) / RFU MAGEB2 (11727129_at) / Fold change /veh MAGEB2 (11727129_at) / RFU TMEM200A (11744735_a_at) / Fold change /veh TMEM200A (11744735_a_at) / RFU CCDC152 (11751479_a_at) / Fold change /veh CCDC152 (11751479_a_at) / RFU FAM211A (11726209_a_at) / Fold change /veh FAM211A (11726209_a_at) / RFU RGS16 (11746705_a_at) / Fold change /veh RGS16 (11746705_a_at) / RFU VCAN (11755009_s_at) / Fold change /veh VCAN (11755009_s_at) / RFU RHOB (11743442_s_at) / Fold change /veh RHOB (11743442_s_at) / RFU RGS16 (11720943_a_at) / Fold change /veh RGS16 (11720943_a_at) / RFU RGS16 (11720944_at) / Fold change /veh RGS16 (11720944_at) / RFU, VPS4B / Fold change vs veh, VPS4B / RFU, CREB1 / Fold change vs veh, CREB1 / RFU, DNAJC13 / Fold change vs veh, DNAJC13 / RFU, GNAQ / Fold change vs veh, GNAQ / RFU, CDK5R1 / Fold change vs veh, CDK5R1 / RFU, ZRANB3 / Fold change vs veh, ZRANB3 / RFU, CUL4A / Fold change vs veh, CUL4A / RFU, CCNY / Fold change vs veh, CCNY / RFU, UFL1 / Fold change vs veh, UFL1 / RFU, COG3 / Fold change vs veh, COG3 / RFU, DIAPH2 / Fold change vs veh, DIAPH2 / RFU, SKA2 / Fold change vs veh, SKA2 / RFU, AFF3 / Fold change vs veh, AFF3 / RFU, LMF1 / Fold change vs veh, LMF1 / RFU, IPO11 / Fold change vs veh, IPO11 / RFU, DFFB / Fold change vs veh, DFFB / RFU, FOXP1 / Fold change vs veh, FOXP1 / RFU, CARD8 / Fold change vs veh, CARD8 / RFU, STRN3 / Fold change vs veh, STRN3 / RFU, ADK / Fold change vs veh, ADK / RFU, RASSF2 / Fold change vs veh, RASSF2 / RFU, WIPF1 / Fold change vs veh, WIPF1 / RFU, LARP1B / Fold change vs veh, LARP1B / RFU, RASA1 / Fold change vs veh, RASA1 / RFU, RB1 / Fold change vs veh, RB1 / RFU, PPFIA1 / Fold change vs veh, PPFIA1 / RFU, MAT2A / Fold change vs veh, MAT2A / RFU, CCT5 / Fold change vs veh, CCT5 / RFU, WDR92 / Fold change vs veh, WDR92 / RFU, CUX1 / Fold change vs veh, CUX1 / RFU, TTC7A / Fold change vs veh, TTC7A / RFU, TMEM135 / Fold change vs veh, TMEM135 / RFU, DEPTOR / Fold change vs veh, DEPTOR / RFU, CPM / Fold change vs veh, CPM / RFU, DNAJB6 / Fold change vs veh, DNAJB6 / RFU, CACNA2D3 / Fold change vs veh, CACNA2D3 / RFU, DTX4 / Fold change vs veh, DTX4 / RFU, TFCP2 / Fold change vs veh, TFCP2 / RFU, GMCL1 /// GMCL1P1 / Fold change vs veh, GMCL1 /// GMCL1P1 / RFU, AEBP2 / Fold change vs veh, AEBP2 / RFU, SNHG1 /// SNORD22 /// SNORD25 /// SNORD26 /// SNORD27 /// SNORD28 /// SNORD29 /// SNORD31 / Fold change vs veh, SNHG1 /// SNORD22 /// SNORD25 /// SNORD26 /// SNORD27 /// SNORD28 /// SNORD29 /// SNORD31 / Fold change (Aza/veh), C12orf56 (ProbeSet 11735607_a_at) / Fold change (ACY-1035/veh), C12orf56 (ProbeSet 11735607_a_at) / Fold change (Aza/veh), FGFR1OP (ProbeSet 11751329_s_at) / Fold change (ACY-1035/veh), FGFR1OP (ProbeSet 11751329_s_at) / Fold change (Aza/veh), VPS36 (ProbeSet 11739960_a_at) / Fold change (ACY-1035/veh), VPS36 (ProbeSet 11739960_a_at) / RFU SYPL1 (11715823_x_at) / Fold change /veh SYPL1 (11715823_x_at) / RFU IGFBP7 (11715501_s_at) / Fold change /veh IGFBP7 (11715501_s_at) / RFU REEP3 (11722064_at) / Fold change /veh REEP3 (11722064_at) / RFU IGLL1 (11728026_x_at) / Fold change /veh IGLL1 (11728026_x_at): dose or concentration left out as unconfirmed.

Consider `Nc1ccc(-c2cccs2)cc1NC(=O)c1ccc2c(c1)cc(C1CC1)n2CCN1CCOCC1` [ACY-1035], for which the “Fold change vs veh, CPM” value turned out to be 0.83.
